Results as given in patent US20250325684A1, “POTENT ANTI-CANCER CYCLOTIDES” (University of Southern California, priority 2022, published 2025).
Bridge positions count the residues as written; N and C are the ends. Peptide text beside a SMILES is read from it.

Tests used:
SW626 = test: MTT cell viability, SW626 cells; assay type: cell-based, human; conditions: SW626 ovarian cells, p53 Mutant; MTT (Table 7); read-out: Cell Viability Assay
Protocol: (§1) Cell viability assay in several human cancer cell lines (See Tables 1 to 10). Cell lines were cultured in RPMI 1640 (or recommended medium when indicated) medium supplemented with 10% fetal calf serum, penicillin (50 IU/mL) and streptomycin ([…]) at 37° C. in 5% CO2. Cell viability studies was carried using the MTT (3-(4,5-dimethylthiazol-2-yl)-2,5-diphenyltetrazolium bromide) assay as previously described (31). Briefly, ≈2×10^3 CRC cells were be seeded in 96-well microtiter plates in 100 μL RPMI 1640 in the presence of 10% calf serum. […] After 1 h, 210 μL/well of full complemented media was added, the cells were grown for 48 h and then treated with 20 μL of a solution of MTT (5 mg/mL) for 2 h. The medium was discarded and DMSO ([…]) was added to each well and incubated with gentle shaking for 20 min at room temperature. The absorbance at 595 nm of the solution is analyzed using a Tecan Genios Multifunctional Microplate Reader (Tecan System Inc) and the background at 670 nm subtracted. RNA-Seq analysis was performed using state-of-the-art bioinformatics tools. Briefly, raw RNA-Seq reads were mapped to human genome (hg38) using STAR aligner (v2.7.3a). Gencode Release 36 reference was used for annotation. Transcript and gene expression levels were quantified using the IsoEM (37) with default parameters. Counts per million (CPM) method is used for normalization. Differential expression was done using DESeq2 with default parameters. Genes involved in different biological pathways (human) were searched from Geneontology (http://geneontology.org/). Bioinformatics results can be validated by using Partek Flow (v10.0.21.0912), a bioinformatics pipeline developed by Zymo Research (https://www.zymoresearch.com/).
(§2) Cell viability was evaluated using the MTT assay as described above.

A2780 = test: MTT cell viability, A2780 ovarian cells; assay type: cell-based, human; conditions: p53 WT
Protocol: (§3) Cell viability assay in several human cancer cell lines (See Tables 1 to 10). Cell lines were cultured in RPMI 1640 (or recommended medium when indicated) medium supplemented with 10% fetal calf serum, penicillin (50 IU/mL) and streptomycin ([…]) at 37° C. in 5% CO2. Cell viability studies was carried using the MTT (3-(4,5-dimethylthiazol-2-yl)-2,5-diphenyltetrazolium bromide) assay as previously described (31). Briefly, ≈2×10^3 CRC cells were be seeded in 96-well microtiter plates in 100 μL RPMI 1640 in the presence of 10% calf serum. After 24 h incubation the cells were washed with PBS and treated with 30 μL/well of PBS or RPMI 1640 (or recommended) media containing cyclotides MCo-52, MCoTI-I (used as negative control), nutlin-3a (used as positive control) or MI-77301 (used as positive control for p53-mutated or p53-null cells) at the indicated doses for 1 h at 37° C. in 5% CO2. After 1 h, 210 μL/well of full complemented media was added, the cells were grown for 48 h and then treated with 20 μL of a solution of MTT (5 mg/mL) for 2 h. The medium was discarded and DMSO ([…]) was added to each well and incubated with gentle shaking for 20 min at room temperature. The absorbance at 595 nm of the solution is analyzed using a Tecan Genios Multifunctional Microplate Reader (Tecan System Inc) and the background at 670 nm subtracted. RNA-Seq analysis was performed using state-of-the-art bioinformatics tools. Briefly, raw RNA-Seq reads were mapped to human genome (hg38) using STAR aligner (v2.7.3a). Gencode Release 36 reference was used for annotation. Transcript and gene expression levels were quantified using the IsoEM (37) with default parameters. Counts per million (CPM) method is used for normalization. Differential expression was done using DESeq2 with default parameters. Genes involved in different biological pathways (human) were searched from Geneontology (http://geneontology.org/). Bioinformatics results can be validated by using Partek Flow (v10.0.21.0912), a bioinformatics pipeline developed by Zymo Research (https://www.zymoresearch.com/).
(§4) Tables 1 through 10 show in vitro activity of cyclotide MCo-52-2-cTAT against different human cancer cell lines, some with null-, mutated, or wildtype p53 phenotypes. Cell viability was evaluated using the MTT assay as described above.

NIHOVCAR3 = test: MTT cell viability, NIHOVCAR3 ovarian cells; assay type: cell-based, human; conditions: p53 Mutant
Protocol: as §3, §4

SKOV 3 = test: MTT cell viability, SKOV 3 ovarian cells; assay type: cell-based, human; conditions: p53 Mutant
Protocol: as §3, §4

ES-2 = test: MTT cell viability, ES-2 ovarian cells; assay type: cell-based, human; conditions: p53 Mutant
Protocol: as §3, §4

Capan-1 = test: MTT cell viability, Capan-1 cells; assay type: cell-based, human; conditions: Capan-1 pancreatic ductal adenocarcinoma, p53 Mutant
Protocol: as §1, §2

AsPC-1 = test: MTT cell viability, AsPC-1 cells; assay type: cell-based, human; conditions: AsPC-1 pancreatic ductal adenocarcinoma, p53 Mutant
Protocol: as §1, §2

SW1990 = test: MTT cell viability, SW1990 cells; assay type: cell-based, human; conditions: SW1990 pancreatic adenocarcinoma, p53 Mutant (Deletion)
Protocol: as §1, §2

BxPC-3 = test: MTT cell viability, BxPC-3 cells; assay type: cell-based, human; conditions: BxPC-3 pancreatic ductal adenocarcinoma, p53 Mutant
Protocol: as §1, §2

MIA PaCa-2 = test: MTT cell viability, MIA PaCa-2 cells; assay type: cell-based, human; conditions: MIA PaCa-2 pancreatic ductal adenocarcinoma, p53 Mutant
Protocol: as §1, §2

PANC-1 = test: MTT cell viability, PANC-1 cells; assay type: cell-based, human; conditions: PANC-1 pancreatic ductal adenocarcinoma, p53 Mutant
Protocol: as §1, §2

HPAF-II = test: MTT cell viability, HPAF-II cells; assay type: cell-based, human; conditions: HPAF-II pancreatic ductal adenocarcinoma, p53 Mutant
Protocol: as §1, §2

CFPAC-1 = test: MTT cell viability, CFPAC-1 cells; assay type: cell-based, human; conditions: CFPAC-1 pancreatic ductal adenocarcinoma, p53 Mutant
Protocol: as §1, §2

LNCaP = test: MTT cell viability, LNCaP cells; assay type: cell-based; conditions: LNCaP prostate carcinoma, p53 WT, read-out: Cell viability, Human Prostate Cancer Cells
Protocol: as §3, §4

DU145 = test: MTT cell viability, DU145 cells; assay type: cell-based; conditions: DU145 prostate carcinoma, p53 Mutant, read-out: Cell viability, Human Prostate Cancer Cells
Protocol: as §3, §4

PC-3 = test: MTT cell viability, PC-3 cells; assay type: cell-based; conditions: PC-3 prostate carcinoma, p53 Mutant, read-out: Cell viability, Human Prostate Cancer Cells
Protocol: as §3, §4

HCT116^+/+ = test: MTT cell viability, HCT116 p53 wild-type cells; assay type: cell-based, human; conditions: Homo sapiens, HCT-116
Protocol: as §1, §2

HCT116^−/− = test: MTT cell viability, HCT116 p53-null cells; assay type: cell-based, human; conditions: Homo sapiens, HCT-116
Protocol: as §1, with “Counts per million (CPM) method is used for normalization. Differential expression was done using DESeq2 with default parameters. Genes involved in different biological pathways (human) were searched from Geneontology (http://geneontology.org/). Bioinformatics results can be validated by using Partek Flow (v10.0.21.0912), a bioinformatics pipeline developed by Zymo Research (https://www.zymoresearch.com/).” left out
as §2

Caco-2 = test: MTT cell viability, Caco-2 cells; assay type: cell-based, human; conditions: Homo sapiens, Caco-2 colon adenocarcinoma, p53 Mutant
Protocol: as §1, §2

SW480 = test: MTT cell viability, SW480 cells; assay type: cell-based, human; conditions: Homo sapiens, SW480 colon adenocarcinoma, p53 Mutant
Protocol: as §1, §2

MSCLC 494 = test: MTT cell viability, MSCLC 494 cells; assay type: cell-based; conditions: Mus musculus, MSCLC 494 murine small cell lung cancer
Protocol: as §1, §2

Jurkat = test: MTT cell viability, Jurkat cells; assay type: cell-based, human; conditions: Homo sapiens, Jurkat childhood T acute lymphoblastic leukemia, p53 Mutant
Protocol: as §1, §2

U937 = test: MTT cell viability, U937 cells; assay type: cell-based, human; conditions: Homo sapiens, U-937, U937 adult acute monocytic leukemia, p53 Mutant
Protocol: as §1, §2

MOLM-13 = test: MTT cell viability, MOLM-13 cells; assay type: cell-based, human; conditions: Homo sapiens, MOLM-13 adult acute myeloid leukemia, p53 WT
Protocol: as §1, §2

MV4-11 = test: MTT cell viability, MV4-11 cells; assay type: cell-based, human; conditions: Homo sapiens, MV4-11 childhood acute monocytic leukemia, p53 WT
Protocol: as §1, §2

NCl-A549 = test: MTT cell viability, NCl-A549 cells; assay type: cell-based, human; conditions: Homo sapiens, NCl-A549 lung adenocarcinoma, p53 WT
Protocol: as §1, §2

NCl-H23 = test: MTT cell viability, NCl-H23 cells; assay type: cell-based, human; conditions: Homo sapiens, NCl-H23 lung adenocarcinoma, p53 Mutant
Protocol: as §1, §2

NCl-H522 = test: MTT cell viability, NCl-H522 cells; assay type: cell-based, human; conditions: Homo sapiens, NCl-H522 lung adenocarcinoma, p53 Mutant (Deletion)
Protocol: as §1, §2

NCl-H1299 = test: MTT cell viability, NCl-H1299 cells; assay type: cell-based, human; conditions: Homo sapiens, NCl-H1299 lung large cell carcinoma, p53 Null
Protocol: as §1, §2

NCl-H69 = test: MTT cell viability, NCl-H69 cells; assay type: cell-based, human; conditions: Homo sapiens, NCl-H69 lung small cell carcinoma, p53 Mutant
Protocol: as §1, §2

NCl-H526 = test: MTT cell viability, NCl-H526 cells; assay type: cell-based, human; conditions: Homo sapiens, NCl-H526 lung small cell carcinoma, p53 Null
Protocol: as §1, §2

CC[C@H](C)[C@@H]1NC(=O)[C@@H]2CSSC[C@@H]3NC(=O)[C@H](C(C)C)NC(=O)CNC(=O)CNC(=O)[C@H](CC(=O)O)NC(=O)[C@H](CO)NC(=O)CNC(=O)[C@H](CO)NC(=O)CNC(=O)[C@@H]4CSSC[C@H](NC(=O)[C@H](CC(=O)O)NC(=O)[C@H](CO)NC(=O)[C@H](CC(=O)O)NC(=O)[C@H](CCCNC(=N)N)NC(=O)[C@H](CCCNC(=N)N)NC(=O)[C@H](CSSC[C@H](NC1=O)C(=O)N[C@@H](CCCNC(=N)N)C(=O)N[C@@H](Cc1c[nH]cn1)C(=O)N[C@@H](CC(=O)O)C(=O)N[C@@H](CO)C(=O)N[C@@H](Cc1ccc(O)cc1)C(=O)N4)NC(=O)[C@H](CC(C)C)NC(=O)[C@H](CC(C)C)NC(=O)[C@H](Cc1ccc(O)cc1)NC(=O)[C@H](CC(C)C)NC(=O)[C@H](CC(N)=O)NC(=O)[C@@H]1CCCN1C3=O)C(=O)N1CCC[C@H]1C(=O)NCC(=O)N[C@@H](C)C(=O)N2 [Cyclotide 52-2] (cyclo(ACICRHDSYCGSGSDGGVCPNLYLLCRRDSDCPG); disulfide 2-19, 4-26, 10-32) gave an EC50 (SW626) greater than 100 µM, an EC50 (A2780) greater than 100 µM and an EC50 (NIHOVCAR3) greater than 100 µM. It also gave an EC50 (SKOV 3) greater than 100 µM, an EC50 (ES-2) greater than 100 µM and an EC50 (Capan-1) greater than 100 µM. The EC50 (AsPC-1) was greater than 100 µM, the EC50 (SW1990) was greater than 100 µM and the EC50 (BxPC-3) was greater than 100 µM. For the same compound, the EC50 (MIA PaCa-2) was greater than 100 µM, the EC50 (PANC-1) was greater than 100 µM and the EC50 (HPAF-II) was greater than 100 µM. For the same compound, the EC50 (CFPAC-1) was greater than 100 µM, the EC50 (LNCaP) was greater than 100 µM and the EC50 (DU145) was greater than 100 µM. The EC50 (PC-3) was greater than 100 µM.
For CC(C)(C)C[C@@H]1N[C@@H](C(=O)N[C@H]2CC[C@H](O)CC2)[C@H](c2cccc(Cl)c2F)[C@]12C(=O)Nc1cc(Cl)ccc12 [MI-77301], the EC50 (HCT116^+/+) was 2.7 ± 0.2 µM, the EC50 (HCT116^−/−) was 23.7 ± 1.9 µM and the EC50 (Caco-2) was greater than 50 µM. The EC50 (SW480) was 26.1 ± 3.3 µM, the EC50 (MSCLC 494) was 15.8 ± 2.2 µM and the EC50 (Jurkat) was 12.1 ± 1.6 µM. For the same compound, the EC50 (U937) was 9.6 ± 2.2 µM, the EC50 (MOLM-13) was 0.7 ± 0.1 µM and the EC50 (MV4-11) was 0.3 ± 0.03 µM. The EC50 (NCl-A549) was 15.8 ± 2.2 µM, the EC50 (NCl-H23) was 10.7 ± 1.9 µM and the EC50 (NCl-H522) was 22.7 ± 2.8 µM. The EC50 (NCl-H1299) was 21.5 ± 2.5 µM, the EC50 (NCl-H69) was 31.7 ± 5.2 µM and the EC50 (NCl-H526) was 9.7 ± 1.8 µM. For the same compound, the EC50 (BxPC-3; Homo sapiens) was 17.3 ± 2.3 µM, the EC50 (MIA PaCa-2; Homo sapiens) was 10.5 ± 1.6 µM and the EC50 (PANC-1; Homo sapiens) was 12.7 ± 1.6 µM. The EC50 (HPAF-II; Homo sapiens) was 6.7 ± 1 µM and the EC50 (CFPAC-1; Homo sapiens) was 22.1 ± 1.6 µM.
